Here are results for eight compounds from PubChem BioAssay AID1259411 (Chemical Carcinogenesis Research Information System (CCRIS), 2018).

In the data set the test system is rodent carcinogenicity bioassays, tumor incidence. The data set is described as follows: CCRIS carcinogenicity studies. Put shortly: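 NCI-built, expert-reviewed records of carcinogenicity and related test outcomes (mutagenicity, tumor promotion/inhibition) compiled from published and report sources, historical span 1985-2011, not updated.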

Calls of active or inactive are those of the source. No rule for the calls is given here.

For the compound `O=P(=O)O`, the carcinogen call is “inactive; negative” (Species: RAT, Strain/Sex: F344/FEMALE, Route: INHALATION, Dose: 0, 1, 5, 25 MG/M3 6 HR/D 5 D/WK FOR 24 MO (STUDY DURATION: 24 MO), Dose: 0, 1, 5, 25 MG/M3 6 HR/D 5 D/WK FOR 24 MO (STUDY DURATION: 24 MO)) and “inactive; negative” (Species: RAT, Strain/Sex: F344/MALE, Route: INHALATION, Dose: 0, 1, 5, 25 MG/M3 6 HR/D 5 D/WK FOR 24 MO (STUDY DURATION: 24 MO), Dose: 0, 1, 5, 25 MG/M3 6 HR/D 5 D/WK FOR 24 MO (STUDY DURATION: 24 MO)).

In the case of `CCNC(=O)N(C=O)CCN(C)C`, the carcinogen call by setting is: (Species: RAT, Strain/Sex: F344/FEMALE, Route: INTRAGASTRIC, Dose: 0, 25 MG/ML CORN OIL/ETHYL ACETATE (2:1) SOLUTION ADMINISTERED AS 0.2 ML 2/WK FOR 37 WK (STUDY DURATION: 102 WK), Tumor Site: Type of Lesion: NASAL CAVITY: ADENOMA) “active; positive”; (Species: RAT, Strain/Sex: F344/MALE, Route: INTRAGASTRIC, Dose: 0, 25 MG/ML CORN OIL/ETHYL ACETATE (2:1) SOLUTION ADMINISTERED AS 0.2 ML 2/WK FOR 37 WK (STUDY DURATION: 102 WK)) “inactive; negative”.

As to `CC1CN(N=O)CC(C)O1` (stereo not drawn), the carcinogen call is “active; positive” (Species: FISH, Strain/Sex: SHASTA RAINBOW TROUT/MALE, FEMALE, Route: ORAL, Dose: 0, 1556 PPM IN DIET FOR 18 MO (STUDY DURATION: 18 MO), Tumor Site: Type of Lesion: LIVER: CARCINOMA, STOMACH: PAPILLOMA); “active; positive” (Species: HAMSTER, Strain/Sex: EUROPEAN/FEMALE, Route: GAVAGE, Dose: 0, 37 MG/KG 1/WK FOR DURATION OF STUDY (STUDY DURATION: LIFETIME), Tumor Site: Type of Lesion: NASAL CAVITY: TUMOR, TRACHEA: TUMOR, LIVER: HEMANGIOENDOTHELIOMA, Tumor Site: Type of Lesion: NASAL CAVITY: TUMOR, TRACHEA: TUMOR, LIVER: HEMANGIOENDOTHELIOMA); “active; positive” (Species: HAMSTER, Strain/Sex: EUROPEAN/FEMALE, Route: GAVAGE, Dose: 0, 112 MG/KG 1/WK FOR DURATION OF STUDY (STUDY DURATION: LIFETIME), Tumor Site: Type of Lesion: NASAL CAVITY: TUMOR, TRACHEA: TUMOR, LUNG: TUMOR, Tumor Site: Type of Lesion: NASAL CAVITY: TUMOR, TRACHEA: TUMOR, LUNG: TUMOR); “active; positive” (Species: HAMSTER, Strain/Sex: EUROPEAN/FEMALE, Route: SUBCUTANEOUS, Dose: 0, 85 MG/KG 1/WK FOR DURATION OF STUDY (STUDY DURATION: LIFETIME), Tumor Site: Type of Lesion: NASAL CAVITY: TUMOR, LARYNX: TUMOR, TRACHEA: TUMOR, LUNG: TUMOR, Tumor Site: Type of Lesion: NASAL CAVITY: TUMOR, LARYNX: TUMOR, TRACHEA: TUMOR, LUNG: TUMOR); “active; positive” (Species: HAMSTER, Strain/Sex: EUROPEAN/MALE, Route: GAVAGE, Dose: 0, 37 MG/KG 1/WK FOR DURATION OF STUDY (STUDY DURATION: LIFETIME), Tumor Site: Type of Lesion: NASAL CAVITY: TUMOR, LIVER: HEMANGIOENDOTHELIOMA); “active; positive” (Species: HAMSTER, Strain/Sex: EUROPEAN/MALE, Route: GAVAGE, Dose: 0, 112 MG/KG 1/WK FOR DURATION OF STUDY (STUDY DURATION: LIFETIME), Tumor Site: Type of Lesion: NASAL CAVITY: TUMOR, LUNG: TUMOR). The carcinogen call is, setting by setting: (Species: HAMSTER, Strain/Sex: EUROPEAN/MALE, Route: SUBCUTANEOUS, Dose: 0, 85 MG/KG 1/WK FOR DURATION OF STUDY (STUDY DURATION: LIFETIME), Tumor Site: Type of Lesion: NASAL CAVITY: TUMOR, LARYNX: TUMOR, TRACHEA: TUMOR, LUNG: TUMOR, Tumor Site: Type of Lesion: NASAL CAVITY: TUMOR, LARYNX: TUMOR, TRACHEA: TUMOR, LUNG: TUMOR) “active; positive”; (Species: HAMSTER, Strain/Sex: SYRIAN/MALE,FEMALE, Route: GAVAGE, Dose: 9-74 MG/KG 1/WK FOR LIFE, Tumor Site: Type of Lesion: PANCREAS, TRACHEA, LUNG, LIVER, NASAL CAVITY, FORESTOMACH, GALL BLADDER, LARYNX, Tumor Site: Type of Lesion: PANCREAS, TRACHEA, LUNG, LIVER, NASAL CAVITY, FORESTOMACH, GALL BLADDER, LARYNX) “active; positive”; (Species: HAMSTER, Strain/Sex: SYRIAN/MALE,FEMALE, Route: SUBCUTANEOUS, Dose: 8, 16, 32 MG/KG 1/WK FOR LIFE, Dose: 8, 16, 32 MG/KG 1/WK FOR LIFE, Tumor Site: Type of Lesion: NASAL CAVITY, LARYNX, TRACHEA, LUNG, FORESTOMACH, PANCREAS, VAGINA, Tumor Site: Type of Lesion: NASAL CAVITY, LARYNX, TRACHEA, LUNG, FORESTOMACH, PANCREAS, VAGINA) “active; positive”; (Species: RAT, Strain/Sex: F344/FEMALE, Route: INTRAVESICULAR, Dose: 0, 6 MG IN 0.2 ML ETHANOL: DEIONIZED WATER (1:3) 2/WK FOR 18 WK (TOTAL DOSE 1.5 MMOL) (STUDY DURATION: LIFESPAN), Tumor Site: Type of Lesion: ESOPHAGUS: TUMOR) “active; positive”; (Species: RAT, Strain/Sex: F344/FEMALE, Route: ORAL, Dose: 20 MG/L IN DRINKING WATER FOR 30 WK, Tumor Site: Type of Lesion: ESOPHAGUS: PAPILLOMA, CARCINOMA, TONGUE: PAPILLOMA, CARCINOMA) “active; positive”; (Species: RAT, Strain/Sex: F344/FEMALE, Route: ORAL, Dose: 50 MG/L IN DRINKING WATER FOR 22 WK, Tumor Site: Type of Lesion: ESOPHAGUS: PAPILLOMA, CARCINOMA) “active; positive”. In addition, the carcinogen call is “active; positive” (Species: RAT, Strain/Sex: SPRAGUE-DAWLEY/MALE,FEMALE, Route: SUBCUTANEOUS, Dose: 0, 1/100, 1/10 OF LD50 1/WK FOR LIFE (STUDY DURATION: LIFETIME), Dose: 0, 1/100, 1/10 OF LD50 1/WK FOR LIFE (STUDY DURATION: LIFETIME), Tumor Site: Type of Lesion: ESOPHAGUS: CARCINOMA); “active; positive” (Species: RAT, Strain/Sex: SPRAGUE-DAWLEY/MALE,FEMALE, Route: SUBCUTANEOUS, Dose: 0, 1/100, 1/10 OF LD50 1/WK FOR LIFE TO RATS WITH ESOPHAGOJEJUNOSTOMY (STUDY DURATION: LIFETIME), Dose: 0, 1/100, 1/10 OF LD50 1/WK FOR LIFE TO RATS WITH ESOPHAGOJEJUNOSTOMY (STUDY DURATION: LIFETIME), Tumor Site: Type of Lesion: ESOPHAGUS: CARCINOMA); “active; positive” (Species: RAT, Strain/Sex: SPRAGUE-DAWLEY/MALE, Route: ORAL, Dose: 50 MG/L IN DRINKING WATER (20 ML/D 5 D/WK) FOR 30 WK, Tumor Site: Type of Lesion: ESOPHAGUS: PAPILLOMA, SQUAMOUS CELL CARCINOMA, NASAL TURBINATES: ADENOCARCINOMA).

As to `N#[N+]c1ccc(CO)cc1`, the carcinogen call reads like this: (Species: MOUSE, Strain/Sex: SWISS/FEMALE, Route: SUBCUTANEOUS, Dose: 0, 50 UG/G BW IN 0.01 ML 0.9% SALINE 1/WK FOR 26 WK (STUDY DURATION: 140 WK), Tumor Site: Type of Lesion: SUBCUTIS: TUMOR, SKIN: TUMOR) “active; positive”; (Species: MOUSE, Strain/Sex: SWISS/MALE, Route: SUBCUTANEOUS, Dose: 0, 50 UG/G BW IN 0.01 ML 0.9% SALINE 1/WK FOR 26 WK (STUDY DURATION: 140 WK), Tumor Site: Type of Lesion: SUBCUTIS: TUMOR, SKIN: TUMOR) “active; positive”.

`Cc1cc(NS(=O)(=O)c2ccc(N)cc2)no1`: where the note is “Species: RAT, Strain/Sex: CD-1/MALE,FEMALE, Route: ORAL, Dose: 25, 50, 150, 300, 600 MG/KG/D IN DIET FOR 60 WK, Dose: 25, 50, 150, 300, 600 MG/KG/D IN DIET FOR 60 WK, Tumor Site: Type of Lesion: THYROID GLAND: ADENOMA OR NODULES”, the carcinogen call is “active; positive”.

For `O=[N+]([O-])c1ccc2ccc3cccc4c5ccccc5c1c2c34`, for the setting “Species: MOUSE, Strain/Sex: B6C3F1/MALE, Route: INTRAPERITONEAL, Dose: 0, 400 NMOL IN 35 µL DMSO ON DAYS 1 (1/7 TOTAL DOSE), 8 (2/7 TOTAL DOSE), AND 15 (4/7 TOTAL DOSE) AFTER BIRTH (STUDY DUR”, the carcinogen call was “inactive; negative”.

`CCCC[N+](=O)[O-]`: the carcinogen call (Species: RAT, Strain/Sex: F344/MALE, Route: GAVAGE, Dose: 0, 2 MMOL/KG BW 1/WK FOR 50 WK (STUDY DURATION: 83 WK)) was “inactive; negative”.

On to `CN(C)c1ccc(N=NS(=O)(=O)O)cc1`, for which the carcinogen call is, setting by setting: (Species: MOUSE, Strain/Sex: B6C3F1/FEMALE, Route: ORAL, Dose: 0, 0.05, 0.10% OF DIET, TWA, Dose: 0, 0.05, 0.10% OF DIET, TWA) “inactive; negative”; (Species: MOUSE, Strain/Sex: B6C3F1/MALE, Route: ORAL, Dose: 0, 0.10, 0.19% OF DIET, TWA, Dose: 0, 0.10, 0.19% OF DIET, TWA) “inactive; negative”; (Species: RAT, Strain/Sex: F344/FEMALE, Route: ORAL, Dose: 0, 0.05, 0.10% OF DIET, TWA, Dose: 0, 0.05, 0.10% OF DIET, TWA) “inactive; negative”; (Species: RAT, Strain/Sex: F344/MALE, Route: ORAL, Dose: 0, 0.05, 0.10% OF DIET, TWA, Dose: 0, 0.05, 0.10% OF DIET, TWA) “inactive; negative”.
